What was measured:
Format in all cases: biochemical
Details in all cases: HTRF method
Ret wt = Ret wt (Homo sapiens (Human), UniProt P07949); assay: HTRF kinase inhibition assay, Ret wt
Description: (§1) • 1. […] 1) • 18) Echo (Labcyte, 550) • 3.
(§2) [formula] • Ratiopositive control: average of CEP-32496 readings in all positive control wells • Rationegative control: average of DMSO readings in all negative control wells • Wherein, the chemical name of CEP-32496 is: N-[3-[(6,7-dimethoxy-4-quinazolinyl)oxy]phenyl]-N′-[5-(2,2,2-trifluoro-1,1-dimethylethyl)-3-isoxazolyl]urea. • 4.3 Calculation of the IC50 and Drawing of the inhibition curve of the compound: • The IC50 (half inhibitory concentration) of the compound was obtained using the following non-linear fitting formula: Data analysis was performed using Graphpad 6.0 software. Y=Bottom+(Top−Bottom)/(1+10^((Log IC50−X)*Hill Slope)) • X: compound concentration log value Y: inhibition, % • 5.

CCDC6-RET = CCDC6-RET (Homo sapiens (Human), UniProt P07949+Q16204); assay: HTRF kinase inhibition assay, CCDC6-RET
Sequence of CCDC6-RET (P07949 other isoform, or with tags, fused parts or gaps): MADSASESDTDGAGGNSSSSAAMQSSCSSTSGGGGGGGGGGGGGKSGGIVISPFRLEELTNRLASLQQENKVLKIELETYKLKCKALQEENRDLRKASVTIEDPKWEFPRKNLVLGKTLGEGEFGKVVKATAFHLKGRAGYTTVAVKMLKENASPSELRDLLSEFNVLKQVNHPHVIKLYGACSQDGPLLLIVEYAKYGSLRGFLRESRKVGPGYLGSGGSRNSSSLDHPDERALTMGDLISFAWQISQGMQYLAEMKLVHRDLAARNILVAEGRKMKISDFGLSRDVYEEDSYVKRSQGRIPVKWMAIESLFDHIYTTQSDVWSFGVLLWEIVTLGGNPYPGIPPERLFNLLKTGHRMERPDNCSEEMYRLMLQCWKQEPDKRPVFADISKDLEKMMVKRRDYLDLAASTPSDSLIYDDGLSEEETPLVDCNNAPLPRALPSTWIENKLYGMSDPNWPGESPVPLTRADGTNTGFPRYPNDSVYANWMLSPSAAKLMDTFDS
Description: as §1, §2

Ret M918T = Ret M918T (Homo sapiens (Human), UniProt P07949, M918T); assay: HTRF kinase inhibition assay, Ret M918T
Sequence of Ret M918T (P07949 29-1114 M918T): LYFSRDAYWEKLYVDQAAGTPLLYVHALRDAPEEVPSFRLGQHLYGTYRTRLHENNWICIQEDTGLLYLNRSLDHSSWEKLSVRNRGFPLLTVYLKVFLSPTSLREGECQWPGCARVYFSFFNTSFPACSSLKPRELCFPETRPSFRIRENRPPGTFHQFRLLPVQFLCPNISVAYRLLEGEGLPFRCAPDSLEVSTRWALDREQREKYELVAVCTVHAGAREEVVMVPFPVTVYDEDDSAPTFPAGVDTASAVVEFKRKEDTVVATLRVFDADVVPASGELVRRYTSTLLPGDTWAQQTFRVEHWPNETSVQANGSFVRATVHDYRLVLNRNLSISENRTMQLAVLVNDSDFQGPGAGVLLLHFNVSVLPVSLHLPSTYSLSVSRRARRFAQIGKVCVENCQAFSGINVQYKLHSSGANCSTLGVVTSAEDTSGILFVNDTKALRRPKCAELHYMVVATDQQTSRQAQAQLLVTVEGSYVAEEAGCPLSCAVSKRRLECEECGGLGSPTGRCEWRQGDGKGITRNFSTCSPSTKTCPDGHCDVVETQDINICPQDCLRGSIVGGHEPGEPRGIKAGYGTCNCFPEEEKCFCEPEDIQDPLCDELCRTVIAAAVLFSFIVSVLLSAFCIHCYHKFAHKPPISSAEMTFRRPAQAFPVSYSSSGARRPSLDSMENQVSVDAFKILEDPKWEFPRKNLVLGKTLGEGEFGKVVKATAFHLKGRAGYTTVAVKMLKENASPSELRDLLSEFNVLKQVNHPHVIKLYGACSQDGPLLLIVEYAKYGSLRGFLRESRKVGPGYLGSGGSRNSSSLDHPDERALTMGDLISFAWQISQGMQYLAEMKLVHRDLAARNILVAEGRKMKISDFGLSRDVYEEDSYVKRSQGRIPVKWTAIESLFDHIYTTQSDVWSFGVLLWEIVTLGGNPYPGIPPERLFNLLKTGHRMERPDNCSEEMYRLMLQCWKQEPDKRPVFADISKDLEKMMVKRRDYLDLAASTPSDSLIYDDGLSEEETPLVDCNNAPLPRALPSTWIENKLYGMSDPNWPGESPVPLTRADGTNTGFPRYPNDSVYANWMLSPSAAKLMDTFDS
Description: as §1, §2

Ret V804L = Ret V804L (Homo sapiens (Human), UniProt P07949, V804L); assay: HTRF kinase inhibition assay, Ret V804L
Sequence of Ret V804L (P07949 29-1114 V804L): as the sequence (P07949 29-1114 M918T) above, with V776L, T890M counted along it
Description: as §1, §2

Ret V804M = Ret V804M (Homo sapiens (Human), UniProt P07949, V804M); assay: HTRF kinase inhibition assay, Ret V804M
Sequence of Ret V804M (P07949 29-1114 V804M): as the sequence (P07949 29-1114 M918T) above, with V776M, T890M counted along it
Description: as §1, §2

Sequence of Ret wt (P07949 29-1114): as the sequence (P07949 29-1114 M918T) above, with T890M counted along it

Row | Compound | IC50 (Ret wt) | IC50 (CCDC6-RET) | IC50 (Ret M918T) | IC50 (Ret V804L) | IC50 (Ret V804M)
1 | Cn1cc(-c2cc(-c3ccc(N4CCN(C(=O)C#Cc5ccccc5)CC4)nc3)c3c(C#N)cnn3c2)cn1 [Example 1, 3-cyano-6-(1-methyl-1H-pyrazol-4-yl)-4-(6-(4-(3-phenylpropioloyl)piperazin-1-yl)pyridine-3-yl)pyrazolo[1,5-a]pyridine] | 0.61 nM | 0.87 nM | 0.97 nM | 0.95 nM | 5.53 nM
2 | C#Cc1ccc(C(=O)N2CCN(c3ccc(-c4cc(-c5cnn(C)c5)cn5ncc(C#N)c45)cn3)CC2)cc1 [Example 3, 3-cyano-4-(6-(4-(4-ethynylbenzoyl)piperazin-1-yl)pyridin-3-yl)-6-(1-methyl-1H-pyrazol-4-yl)pyrazolo[1,5-a]pyridine] | 0.27 nM | 0.8 nM | 0.7 nM | 0.3 nM | 16.6 nM
3 | COc1cncc(C#CCN2C3CC2CN(c2ccc(-c4cc(-c5cnn(C)c5)cn5ncc(C#N)c45)cn2)C3)c1 [Example 215, 4-(6-(6-(3-(5-methoxypyridin-3-yl)prop-2-yn-1-yl)-3,6-diazabicyclo[3.1.1]heptane-3-yl)pyridin-3-yl)-6-(1-methyl-1H-pyrazol-4-yl)pyrazolo[1,5-a]pyridin-3-carbonitrile] | 0.16 nM | 0.16 nM | 0.183 nM | 0.06 nM | 0.42 nM
4 | COc1ccc(C#CCN2C3CC2CN(c2ccc(-c4cc(-c5cnn(C)c5)cn5ncc(C#N)c45)cn2)C3)cn1 [Example 194, 4-(6-(6-(3-(6-methoxypyridin-3-yl)prop-2-yn-1-yl)-3,6-diazabicyclo[3.1.1]heptane-3-yl)pyridin-3-yl)-6-(1-methyl-1H-pyrazol-4-yl)pyrazolo[1,5-a]pyridin-3-carbonitrile] | 0.68 nM | 0.26 nM | 0.62 nM | 0.23 nM | 7.07 nM
5 | C#Cc1ccc(C(=O)N2C3CC2CN(c2ccc(-c4cc(-c5cnn(C)c5)cn5ncc(C#N)c45)cn2)C3)cc1F [Example 232, 4-(6-(6-(4-ethynyl-3-fluorobenzoyl)-3,6-diazabicyclo[3.1.1]heptan-3-yl)pyridin-3-yl)-6-(1-methyl-1H-pyrazol-4-yl)pyrazolo[1,5-a]pyridine-3-carbonitrile] | 0.37 nM | – | – | – | 1.79 nM
6 | Cn1cc(-c2cc(-c3ccc(N4CCN(CC#Cc5cccnc5F)CC4)nc3)c3c(C#N)cnn3c2)cn1 [Example 255, 4-[6-[4-[3-(2-fluoro-3-pyridyl)prop-2-ynyl]piperazin-1-yl]-3-pyridyl]-6-(1-methylpyrazol-4-yl)pyrazolo[1,5-a]pyridine-3-carbonitrile] | 0.57 nM | – | – | – | 4.11 nM
7 | C#Cc1cccc(CN2C3CC2CN(c2ccc(-c4cc(-c5cnn(C)c5)cn5ncc(C#N)c45)cn2)C3)n1 [Example 221, 4-(6-(6-((6-ethynylpyridin-2-yl)methyl)-3,6-diazabicyclo[3.1.1]hept-3-yl)pyridin-3-yl)-6-(1-methyl-1H-pyrazol-4-yl)pyrazolo[1,5-a]pyridine-3-carbonitrile] | 0.55 nM | – | – | – | 12.4 nM
8 | COc1cc(C#CCN2CCN(c3ccc(-c4cc(-c5cnn(C)c5)cn5ncc(C#N)c45)cn3)CC2)ccn1 [Example 243, 4-(6-(4-(3-(2-methoxypyridin-4-yl)prop-2-yn-1-yl)piperazin-1-yl)pyridin-3-yl)-6-(1-methyl-1H-pyrazol-4-yl)pyrazolo[1,5-a]pyridine-3-carbonitrile] | 3.51 nM | – | – | – | 37.8 nM
9 | Cn1cc(-c2cc(-c3ccc(N4CC5CC(C4)N5CC#Cc4ccccc4)nc3)c3c(C#N)cnn3c2)cn1 [Example 250, 6-(1-methyl-1H-pyrazol-4-yl)-4-(6-(6-(3-phenylprop-2-yn-1-yl)-3,6-diazabicyclo[3.1.1]heptanpyridin-3-yl)pyridin-3-yl)pyrazolo[1,5-a]pyridine-3-carbonitrile] | 0.14 nM | – | – | – | 0.88 nM
10 | Cn1cc(-c2cc(-c3ccc(N4CCN(CC#Cc5ccc(C(F)(F)F)cc5)CC4)nc3)c3c(C#N)cnn3c2)cn1 [Example 246, 6-(1-methyl-1H-pyrazol-4-yl)-4-(6-(4-(3-(4-(trifluoromethyl)phenyl)prop-2-yn-1-yl)piperazine-1-yl)pyridin-3-yl)pyrazolo[1,5-a]pyridine-3-carbonitrile] | 7.06 nM | – | – | – | 198 nM
11 | C#CC(=O)N1C2CC1CN(c1ccc(-c3cc(-c4cnn(C)c4)cn4ncc(C#N)c34)cn1)C2 [Example 31, 6-(1-methyl-1H-pyrazol-4-yl)-4-(6-(6-propioloyl-3,6-diazabicyclo[3.1.1]heptan-3-yl)pyridin-3-yl)pyrazolo[1,5-a]pyridine-3-carbonitrile] | 1.95 nM | – | – | – | 44.3 nM
12 | C#CC(=O)N1CCN(c2ccc(-c3cc(-c4cnn(C)c4)cn4ncc(C#N)c34)cn2)CC1 [Example 5] | 0.39 nM | – | – | – | 8.2 nM
13 | C#Cc1ccc(C(=O)N2C3CC2CN(c2ccc(-c4cc(-c5cnn(C)c5)cn5ncc(C#N)c45)cn2)C3)nc1 [Example 238, 4-(6-(6-(5-ethynylpicolinoyl)-3,6-diazabicyclo[3.1.1]heptan-3-yl)pyridin-3-yl)-6-(1-methyl-1H-pyrazol-4-yl)pyrazolo[1,5-a]pyridine-3-carbonitrile] | 0.3 nM | – | – | – | 2.75 nM
14 | C#Cc1ccc(O[C@@H]2CCN(c3ccc(-c4cc(-c5cnn(C(F)F)c5)cn5ncc(C#N)c45)cn3)C2)cc1 [Example 286, (R)-6-(1-(difluoromethyl)-1H-pyrazol-4-yl)-4-(6-(3-(4-ethynylphenoxy)pyrrolidin-1-yl)pyridin-3-yl)pyrazolo[1,5-a]pyridine-3-carbonitrile] | 0.85 nM | – | – | – | 0.85 nM
15 | C#Cc1cc(C(=O)N2CCN(c3ccc(-c4cc(-c5cnn(C)c5)cn5ncc(C#N)c45)cn3)CC2)ccc1F [Example 239, 4-(6-(4-(3-ethynyl-4-fluorobenzoyl)piperazin-1-yl)pyridin-3-yl)-6-(1-methyl-1H-pyrazol-4-yl)pyrazolo[1,5-a]pyridine-3-carbonitrile] | 0.62 nM | – | – | – | 12.3 nM
16 | Cn1cc(-c2cc(-c3ccc(N4CCN(CC#Cc5ccccn5)CC4)nc3)c3c(C#N)cnn3c2)cn1 [Example 247, 6-(1-methylpyrazol-4-yl)-4-[6-[4-[3-(2-pyridyl)prop-2-ynyl]piperazin-1-yl]-3-pyridyl]pyrazolo[1,5-a]pyridine-3-carbonitrile] | 0.15 nM | – | – | – | 1.94 nM
17 | C#Cc1cccc(C(=O)NC2(C)CCN(c3ccc(-c4cc(-c5cnn(C)c5)cn5ncc(C#N)c45)cn3)CC2)c1 [Example 4, N-(1-(5-(3-cyano-6-(1-methyl-1H-pyrazol-4-yl)pyrazolo[1,5-a]pyridin-4-yl)pyridin-2-yl)-4-methylpiperidin-4-yl)-3-ethynylbenzamide] | 0.27 nM | 0.6 nM | 2.8 nM | 0.2 nM | 2.3 nM
18 | Cn1cc(-c2cc(-c3ccc(N4CCN(CC#Cc5ccncc5)CC4)nc3)c3c(C#N)cnn3c2)cn1 [Example 263, 6-(1-methyl-1H-pyrazol-4-yl)-4-(6-(4-(3-(pyridin-4-yl)prop-2-yn-1-yl)piperazin-1-yl)pyridine-3-yl)pyrazolo[1,5-a]pyridine-3-carbonitrile] | 2.5 nM | – | – | – | 31.4 nM
19 | COc1cncc(C#CCN2CCN(c3ccc(-c4cc(-c5cnn(C)c5)cn5ncc(C#N)c45)cn3)CC2)c1 [Example 254, 4-(6-(4-(3-(5-methoxypyridin-3-yl)prop-2-yn-1-yl)piperazin-1-yl)pyridin-3-yl)-6-(1-methyl-1H-pyrazol-4-yl)pyrazolo[1,5-a]pyridine-3-carbonitrile] | 3.57 nM | – | – | – | 18.3 nM
20 | C#Cc1cc(C(=O)N2C3CC2CN(c2ccc(-c4cc(-c5cnn(C)c5)cn5ncc(C#N)c45)cn2)C3)ccc1F [Example 233, 4-(6-(6-(3-ethynyl-4-fluorobenzoyl)-3,6-diazabicyclo[3.1.1]heptan-3-yl)pyridin-3-yl)-6-(1-methyl-1H-pyrazol-4-yl)pyrazolo[1,5-a]pyridine-3-carbonitrile] | 0.5 nM | – | – | – | 8.92 nM
